For assay [1], the target named is human full-length glucocorticoid receptor (Homo sapiens (Human), UniProt P04150). As to the kind of experiment: Glucocorticoid Receptor Binding Assay (II), fluorescence polarization competitor kit. The settings on record: read-out: GR (Ki, nM) (measured in GR binding Assay II). As for the experimental part: In order to measure the binding of compounds on the glucocorticoid receptor a commercially available kit was used (Glucocorticoid receptor competitor assay kit, PanVera Co., Madison, Wis., P2816). Briefly, a cell lysate containing recombinantly expressed human full-length glucocorticoid receptor was mixed with a fluorescently labeled glucocorticoid (1 nM Fluormone GS1) in the presence or absence of test compound. After one hour at room temperature, the fluorescence polarization (FP) of the samples were measured.

The subject of assay [2] is AP-1 induced transcriptional activity. As to the kind of experiment: Cellular transrepressional assay (AP-1 luciferase reporter, PMA-activated A549 cell). The settings on record: A549 cell, 10 ng/ml PMA, 7 hours; for EC50: read-out: AP-1 (EC50, nM) (measured in cellular transrepression assay). The assay is classed as cell-based. As for the experimental part: To measure the ability of test molecules to inhibit AP-1 induced transcriptional activity we utilized an A549 cell which was stably transfected with a plasmid containing 7×AP-1 DNA binding sites (pAP-1-Luc plasmid, Stratagene Co., La Jolla, Calif.) followed by the gene for luciferase. Cells were activated with 10 ng/ml of phorbol myristic acid (PMA) plus or minus test molecules for 7 hours. After 7 hours a luciferase reagent was added to measure luciferase enzymatic activity in the cell. After a 10 minute incubation of luciferase reagent with cells, luminescence was measured in a TOPCOUNT® luminescence counter. Repression of AP-1 activity was calculated as the percentage decrease in the signal induced by PMA alone. Test molecules were analyzed in the concentration range from 0.1 nM to 40 μM. EC50s were determined by using standard curve fitting methods such as Excel fit (Microsoft Co.). An EC50 is the test molecule concentration at which there is a 50% repression of the maximal inhibition of transcription, i.e., a 50% reduction of AP-1 activity.

Read-outs that look alike come from different tables or passages of the source.

Chain of human full-length glucocorticoid receptor (P04150 whole entry): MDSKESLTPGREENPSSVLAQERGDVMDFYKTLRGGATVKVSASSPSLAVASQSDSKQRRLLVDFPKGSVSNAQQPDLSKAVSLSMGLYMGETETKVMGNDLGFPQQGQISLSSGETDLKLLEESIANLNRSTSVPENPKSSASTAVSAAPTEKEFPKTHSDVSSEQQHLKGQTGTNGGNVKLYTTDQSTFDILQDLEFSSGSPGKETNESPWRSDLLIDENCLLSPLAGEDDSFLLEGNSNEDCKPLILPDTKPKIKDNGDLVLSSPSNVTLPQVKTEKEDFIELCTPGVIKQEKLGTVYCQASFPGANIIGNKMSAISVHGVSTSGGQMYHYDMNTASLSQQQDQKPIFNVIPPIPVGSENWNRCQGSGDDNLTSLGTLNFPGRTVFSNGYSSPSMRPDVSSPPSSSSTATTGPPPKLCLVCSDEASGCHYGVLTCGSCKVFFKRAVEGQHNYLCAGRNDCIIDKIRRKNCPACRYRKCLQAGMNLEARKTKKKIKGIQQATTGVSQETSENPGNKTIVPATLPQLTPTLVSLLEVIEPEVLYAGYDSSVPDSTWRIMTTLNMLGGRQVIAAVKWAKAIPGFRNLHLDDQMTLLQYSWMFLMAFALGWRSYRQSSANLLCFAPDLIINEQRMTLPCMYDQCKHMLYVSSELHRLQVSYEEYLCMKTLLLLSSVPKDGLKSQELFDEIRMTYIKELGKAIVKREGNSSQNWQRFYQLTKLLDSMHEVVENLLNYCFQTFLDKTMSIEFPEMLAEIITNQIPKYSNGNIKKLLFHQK

Take `CCC(=O)NC(=O)C(C)(C)[C@@H]1c2ccc(Cl)nc2Oc2c(F)cccc21` [Example 1]: in assay [1], the inhibition constant Ki worked out at 42.7 nM. For the same compound, in assay [2], the “AP-1 Max % inhibition (measured in cellular transrepression assay)” value (from here on “AP-1 Max % inhibition”) turned out to be 17.32%. Further, the EC50 in assay [2] (Homo sapiens) stood at 5000 nM.
As to `CC(=O)NC(=O)C(C)(C)[C@@H]1c2ccc(-c3ccc(C(=O)N4CCCC4)cc3)nc2Oc2c(F)cccc21` [Example 8], the inhibition constant (Ki) in assay [1] is 3.59 nM. Further, in assay [2], the “AP-1 Max % inhibition” value is 64.35% and the EC50 was found to be 5.97 nM.
Take `CNC(=O)NC(=O)C(C)(C)[C@@H]1c2ccc(-c3ccc(C(=O)N4CCCC4)cc3)nc2Oc2c(F)cccc21` [Example 11]: in assay [1], the Ki amounted to 4.44 nM. In addition, in assay [2], the “AP-1 Max % inhibition” value amounted to 46.34% and the EC50 was found to be 29.6 nM.
`CCS(=O)(=O)c1ccc(-c2ccc3c(n2)Oc2c(F)cccc2[C@@H]3C(C)(C)C(=O)NC(=O)NC)cc1` [Example 12]: the inhibition constant Ki in assay [1] was found to be 5.04 nM. In assay [2], the “AP-1 Max % inhibition” value turned out to be 36.42% and the EC50 was determined as 85.7 nM.
As for `CNC(=O)NC(=O)C(C)(C)[C@@H]1c2ccc(-c3ccc(S(C)(=O)=O)cc3)nc2Oc2c(F)cccc21` [Example 13], the inhibition constant (Ki) in assay [1] was determined as 13.6 nM. Further, in assay [2], the “AP-1 Max % inhibition” value is 31.60% and the EC50 was found to be 483 nM.
On to `CNC(=O)NC(=O)C(C)(C)[C@@H]1c2ccc(-c3ccc(OC(C)C)cc3)nc2Oc2c(F)cccc21` [Example 16], for which the Ki in assay [1] is 1.6 nM. Moreover, in assay [2], the “AP-1 Max % inhibition” value is reported as 49.58% and the EC50 stood at 35.1 nM.
For `CNC(=O)NC(=O)C(C)(C)[C@@H]1c2ccc(-c3ccc(OC(C)C)nc3)nc2Oc2c(F)cccc21` [Example 17] the same measures were 9.68 nM, 37.10% and 2500 nM.
As to `CNC(=O)NC(=O)C(C)(C)[C@@H]1c2ccc(-c3cnc(N4CCN(C)CC4)nc3)nc2Oc2c(F)cccc21` [Example 18], the Ki in assay [1] stood at 239 nM. Besides, in assay [2], the “AP-1 Max % inhibition” value is 21.96% and the EC50 turned out to be 5000 nM.
For `CNC(=O)NC(=O)C(C)(C)[C@@H]1c2ccc(-c3ccc(S(=O)(=O)C(C)C)cc3)nc2Oc2c(F)cccc21` [Example 25], the Ki in assay [1] stood at 5.26 nM. Also, in assay [2], the “AP-1 Max % inhibition” value is listed as 25.41% and the EC50 is 347 nM.
Regarding `CNC(=O)NC(=O)C(C)(C)[C@@H]1c2ccc(-c3ccc(N4CCOCC4)nc3)nc2Oc2c(F)cccc21` [Example 27], the Ki in assay [1] is 10.9 nM. Also, the “AP-1 Max % inhibition” value in assay [2] stood at 16.38%. Also, the EC50 in assay [2] (Homo sapiens) amounted to 5000 nM.
Regarding `COc1ccc(CNC(=O)NC(=O)C(C)(C)[C@@H]2c3ccc(-c4ccc(C(C)(C)O)cc4)nc3Oc3c(F)cccc32)cc1` [Example 29], in assay [1], the Ki is 3.33 nM. In addition, in assay [2], the “AP-1 Max % inhibition” value came to 51.82%. Also, in assay [2] (Homo sapiens), the EC50 worked out at 646 nM.
For the compound `CC(C)(C(=O)NC(N)=O)[C@@H]1c2ccc(-c3ccc(C(=O)N4CCCC4)cc3)nc2Oc2c(F)cccc21` [Example 30], in assay [1], the Ki is 0.72 nM. Further, in assay [2], the “AP-1 Max % inhibition” value is 63.94% and the concentration giving a half-maximal response (EC50) was determined as 1.59 nM.
For `CCS(=O)(=O)c1ccc(-c2ccc3c(n2)Oc2c(F)cccc2[C@@H]3C(C)(C)C(=O)NC(N)=O)cc1` [Example 31] the same measures were 0.43 nM, 56.84% and 5.55 nM.
In the same order, the values of `CC(C)S(=O)(=O)c1ccc(-c2ccc3c(n2)Oc2c(F)cccc2[C@@H]3C(C)(C)C(=O)NC(N)=O)cc1` [Example 32] are 3.55 nM, 59.56% and 4.89 nM.
For `CC(C)(C(=O)NC(N)=O)[C@@H]1c2ccc(-c3ccc(S(C)(=O)=O)cc3)nc2Oc2c(F)cccc21` [Example 33] the same measures were 0.59 nM, 64.54% and 5.82 nM.
With `CC(C)Oc1ccc(-c2ccc3c(n2)Oc2c(F)cccc2[C@@H]3C(C)(C)C(=O)NC(N)=O)cc1` [Example 34], the inhibition constant Ki in assay [1] turned out to be 0.25 nM. In assay [2], the “AP-1 Max % inhibition” value worked out at 68.62% and the EC50 was 1.24 nM.
Take `CC(C)Oc1ccc(-c2ccc3c(n2)Oc2c(F)cccc2[C@@H]3C(C)(C)C(=O)NC(N)=O)cc1F` [Example 35]: in assay [1], the Ki turned out to be 0.4 nM. Also, in assay [2], the “AP-1 Max % inhibition” value was 54.04% and the EC50 amounted to 7.5 nM.
In the case of `CC(C)Oc1ccc(-c2ccc3c(n2)Oc2ccccc2[C@@H]3C(C)(C)C(=O)NC(N)=O)cc1` [Example 36], the Ki in assay [1] was found to be 0.8 nM. For the same compound, in assay [2], the “AP-1 Max % inhibition” value is listed as 59.83% and the EC50 amounted to 16.2 nM.
Regarding `CCC(C)c1ccc(-c2ccc3c(n2)Oc2ccccc2[C@@H]3C(C)(C)C(=O)NC(N)=O)cc1` (some centres unmarked) [Example 38], the Ki in assay [1] turned out to be 1.74 nM. In assay [2], the “AP-1 Max % inhibition” value was determined as 56.33% and the half-maximal effective concentration (EC50) is 14.1 nM.
On to `CCS(=O)(=O)c1ccc(-c2ccc3c(n2)Oc2ccccc2[C@@H]3C(C)(C)C(=O)NC(N)=O)cc1` [Example 39], for which the inhibition constant (Ki) in assay [1] worked out at 0.93 nM. For the same compound, in assay [2], the “AP-1 Max % inhibition” value was determined as 58.23% and the EC50 was determined as 13 nM.
As to `CC(C)(C(=O)NC(N)=O)[C@H]1c2ccccc2Oc2nc(-c3ccc(C(=O)N4CCCC4)cc3)ccc21` [Example 40], the Ki in assay [1] was found to be 1.93 nM. Besides, in assay [2], the “AP-1 Max % inhibition” value is recorded as 68.22% and the concentration for a half-maximal effect (EC50) turned out to be 8.69 nM.
As for `COc1ccc2c(c1)Oc1ccccc1[C@@H]2C(C)(C)C(=O)NC(N)=O` [Example 74], the “AP-1 Max % inhibition” value in assay [2] was 7.70%. Besides, the 50% effective concentration (EC50) in assay [2] (Homo sapiens) came to 5000 nM.
For `CC(C)(C(=O)NC(=O)NCCO)[C@@H]1c2ccc(-c3ccc(C(=O)N4CCOCC4)cc3)nc2Oc2c(F)cccc21` [Example 77] the same measures were 55.34% and 786 nM.
For `CC(C)(O)CNC(=O)NC(=O)C(C)(C)[C@@H]1c2ccc(-c3ccc(C(=O)N4CCOCC4)cc3)nc2Oc2c(F)cccc21` [Example 78] the same measures were 46.32% and 340 nM.
As for `CC(C)(O)CNC(=O)NC(=O)C(C)(C)[C@@H]1c2ccc(-c3ccc(C(C)(C)O)cc3)nc2Oc2c(F)cccc21` [Example 79], the “AP-1 Max % inhibition” value in assay [2] came to 36.12%. For the same compound, the EC50 in assay [2] (Homo sapiens) amounted to 789 nM.
Take `CC(C)(O)c1ccc(-c2ccc3c(n2)Oc2c(F)cccc2[C@@H]3C(C)(C)C(=O)NC(=O)NCCO)cc1` [Example 80]: the “AP-1 Max % inhibition” value in assay [2] was 44.42%. Also, in assay [2] (Homo sapiens), the EC50 was found to be 84.6 nM.
`CC(C)S(=O)(=O)c1ccc(-c2ccc3c(n2)Oc2ccccc2[C@@H]3C(C)(C)C(=O)NC(N)=O)cc1` [Example 82]: in assay [2], the “AP-1 Max % inhibition” value turned out to be 60.06%. For the same compound, the EC50 in assay [2] (Homo sapiens) came to 6.69 nM.
As for `CC(C)(C(=O)NC(N)=O)[C@@H]1c2ccc(-c3ccc(C(=O)N4CCC4)cc3)nc2Oc2c(F)cccc21` [Example 84], the “AP-1 Max % inhibition” value in assay [2] turned out to be 67.75%. Further, in assay [2] (Homo sapiens), the EC50 came out at 4.22 nM.

The values above are taken from patent publication US9593113B2, “Imide and acylurea derivatives as modulators of the glucocorticoid receptor” (BRISTOL-MYERS SQUIBB COMPANY, priority 2013, dated 2017).
